Measurements reported in US20160333419A1, “GENE SIGNATURES ASSOCIATED WITH SENSITIVITY TO MDM2 INHIBITORS” (DAIICHI SANKYO COMPANY, LIMITED, priority 2014, published 2016).

Columns and labels:
Test in all cases: OncoPanel cytotoxicity assay
Format in all cases: cell-based
SCC-4 = conditions: Homo sapiens, 72 hour incubation
Protocol: (§1) Cells were grown in RPMI 1640, 10% FBS, 2 mM L-alanyl-L-Glutamine, 1 mM Na Pyruvate, or a special medium in a humidified atmosphere of 5% CO2 at 37° C. Cells were seeded into 384-well plates and incubated in a humidified atmosphere of 5% CO2 at 37° C. Test compounds were added 24 hours post cell seeding. At the same time, a time zero, untreated cell plate was generated as a control. After a 72 hour incubation period, cells were fixed and stained with nuclear dye to allow visualization of nuclei.
(§2) Compounds were serially diluted 3.16-fold and assayed over 10 concentrations of inhibitor in a final assay concentration of 0.1% DMSO from the highest test concentration specified in the sample information chapter. Automated fluorescence microscopy was carried out using a GE Healthcare InCell Analyzer 1000, and images were collected with a 4× objective. Twelve bit tiff images were acquired using the InCell Analyzer 1000 3.2 and analyzed with Developer Toolbox 1.6 software.
(§3) Cell proliferation was measured by the signal intensity of the incorporated nuclear dye. The cell proliferation assay output is referred to as the relative cell count. To determine the cell proliferation end point, the cell proliferation data output is transformed to percent of control (POC) using the following formula: […]
(§4) Relative cell count IC50 (IC50) is the test compound's concentration that produces 50% of the cell proliferation inhibitory response or 50% cytotoxicity level. IC50 values were calculated using nonlinear regression to fit data to a sigmoidal 4 point, 4 parameter One-Site dose response model, where: y (fit)=A+[(B−A)/(1+((C/x)̂D))]. Curve-fitting, IC50 calculations and report generation were performed using a custom data reduction engine MathIQ based software (AIM). […] In these cases, the IC50 values were expressed as 40 μM and 10 μM, respectively (Table 2).

HPAF-II = conditions: Homo sapiens, 72 hour incubation
Protocol: as §1, §2, §3, §4

SK-N-AS = conditions: Homo sapiens, 72 hour incubation
Protocol: as §1, §2, §3, §4

Detroit 562 = conditions: Homo sapiens, 72 hour incubation
Protocol: as §1, §2, §3, §4

Calu1 = conditions: Homo sapiens, Calu-1, 72 hour incubation
Protocol: as §1, §2, §3, §4

SW1088 = conditions: Homo sapiens, 72 hour incubation
Protocol: as §1, §2, §3, §4

RPMI 8226 = conditions: Homo sapiens, 72 hour incubation
Protocol: as §1, §2, §3, §4

786-O = conditions: Homo sapiens, 786-0, 72 hour incubation
Protocol: as §1, §2, §3, §4

NCI-H520 = conditions: Homo sapiens, 72 hour incubation
Protocol: as §1, §2, §3, §4

Colo 205 = conditions: Homo sapiens, 72 hour incubation
Protocol: as §1, §2, §3, §4

HMCB = conditions: Homo sapiens, 72 hour incubation
Protocol: as §1, §2, §3, §4

OCUG-1 = conditions: Homo sapiens, 72 hour incubation
Protocol: as §1, §2, §3, §4

BxPC-3 = conditions: Homo sapiens, 72 hour incubation
Protocol: as §1, §2, §3, §4

BT-549 = conditions: Homo sapiens, 72 hour incubation
Protocol: as §1, §2, §3, §4

Jurkat = conditions: Homo sapiens, 72 hour incubation
Protocol: as §1, §2, §3, §4

769-P = conditions: Homo sapiens, 72 hour incubation
Protocol: as §1, §2, §3, §4

NCIH441 = conditions: Homo sapiens, NCI-H441, 72 hour incubation
Protocol: as §1, §2, §3, §4

TE 381.T = conditions: Homo sapiens, 72 hour incubation
Protocol: as §1, §2, §3, §4

CaOV3 = conditions: Homo sapiens, Caov-3, 72 hour incubation
Protocol: as §1, §2, §3, §4

SU.86.86 = conditions: Homo sapiens, 72 hour incubation
Protocol: as §1, §2, §3, §4

KLE = conditions: Homo sapiens, 72 hour incubation
Protocol: as §1, §2, §3, §4

Cal 27 = conditions: Homo sapiens, 72 hour incubation
Protocol: as §1, §2, §3, §4

SK-BR-3 = conditions: Homo sapiens, 72 hour incubation
Protocol: as §1, §2, §3, §4

SW-13 = conditions: Homo sapiens, SW13, 72 hour incubation
Protocol: as §1, §2, §3, §4

J82 = conditions: Homo sapiens, 72 hour incubation
Protocol: as §1, §2, §3, §4

U266B1 = conditions: Homo sapiens, 72 hour incubation
Protocol: as §1, §2, §3, §4

MDA MB 453 = conditions: Homo sapiens, 72 hour incubation
Protocol: as §1, §2, §3, §4

CHL-1 = conditions: Homo sapiens, 72 hour incubation
Protocol: as §1, §2, §3, §4

OVCAR3 = conditions: Homo sapiens, OVCAR-3, 72 hour incubation
Protocol: as §1, §2, §3, §4

SCaBER = conditions: Homo sapiens, 72 hour incubation
Protocol: as §1, §2, §3, §4

Daoy = conditions: Homo sapiens, 72 hour incubation
Protocol: as §1, §2, §3, §4

Daudi = conditions: Homo sapiens, 72 hour incubation
Protocol: as §1, §2, §3, §4

NCI-H295R = conditions: Homo sapiens, 72 hour incubation
Protocol: as §1, §2, §3, §4

HuP-T4 = conditions: Homo sapiens, 72 hour incubation
Protocol: as §1, §2, §3, §4

SaOS2 = conditions: Homo sapiens, SAOS-2, 72 hour incubation
Protocol: as §1, §2, §3, §4

MDA MB 231 = conditions: Homo sapiens, 72 hour incubation
Protocol: as §1, §2, §3, §4

SK-MEL-3 = conditions: Homo sapiens, SK-MEL3, 72 hour incubation
Protocol: as §1, §2, §3, §4

HS 746T = conditions: Homo sapiens, Hs746T, 72 hour incubation
Protocol: as §1, §2, §3, §4

Compound	IC50 (SCC-4)	IC50 (HPAF-II)	IC50 (SK-N-AS)	IC50 (Detroit 562)	IC50 (Calu1)	IC50 (SW1088)	IC50 (RPMI 8226)	IC50 (786-O)	IC50 (NCI-H520)	IC50 (Colo 205)	IC50 (HMCB)	IC50 (OCUG-1)	IC50 (BxPC-3)	IC50 (BT-549)	IC50 (Jurkat)	IC50 (769-P)	IC50 (NCIH441)	IC50 (TE 381.T)	IC50 (CaOV3)	IC50 (SU.86.86)	further results
CC[C@@H]1CNC2(CC2)CN1C(=O)[C@@H]1C[C@@H](F)CN1C(=O)C1=C(C(C)C)N2C(=N[C@@](C)(c3ccc(Cl)nc3)[C@H]2c2ccc(Cl)c(F)c2)S1 [Compound A, [(5R,6S)-5-(4-Chloro-3-fluorophenyl)-6-(6-chloropyridin-3-yl)-6-methyl-3-(propan-2-yl)-5,6-dihydroimidazo[2,1-b][1,3]thiazol-2-yl][(2S,4R)-2-{[(6R)-6-ethyl-4,7-diazaspiro[2.5]oct-7-yl]carbonyl}-4-fluoropyrrolidin-1-yl]methanone]	> 40 µM	> 40 µM	> 40 µM	> 40 µM	> 40 µM	> 40 µM	> 40 µM	37.3 µM	> 40 µM	36.7 µM	> 40 µM	> 40 µM	> 40 µM	> 40 µM	> 40 µM	0.442 µM	> 40 µM	37.3 µM	> 40 µM	> 40 µM	IC50 (KLE): > 40 µM; IC50 (Cal 27): > 40 µM; IC50 (SK-BR-3): 27.7 µM; IC50 (SW-13): 8.33 µM; IC50 (J82): > 40 µM; IC50 (U266B1): > 40 µM; IC50 (MDA MB 453): 32.8 µM; IC50 (CHL-1): > 40 µM; IC50 (OVCAR3): > 40 µM; IC50 (SCaBER): > 40 µM; IC50 (Daoy): > 40 µM; IC50 (Daudi): 0.599 µM; IC50 (NCI-H295R): > 40 µM; IC50 (HuP-T4): > 40 µM; IC50 (SaOS2): > 40 µM; IC50 (MDA MB 231): > 40 µM; IC50 (SK-MEL-3): > 40 µM; IC50 (HS 746T): 38.9 µM
CC1(C)CCC2(CC1)N[C@@H](C(=O)N[C@@H]1CC[C@@H](C(N)=O)OC1)[C@H](c1ccnc(Cl)c1F)[C@]21C(=O)Nc2cc(Cl)ccc21 [Compound B, (3′R,4′S,5′R)—N-[(3R,6S)-6-carbamoyltetrahydro-2H-pyran-3-yl]-6″-chloro-4′-(2-chloro-3-fluoropyridin-4-yl)-4,4-dimethyl-2″-oxo-1″,2″-dihydrodispiro[cyclohexane-1,2′-pyrrolidine-3′,3″-indole]-5′-carboxamide]	> 10 µM	5.79 µM	8.29 µM	7.74 µM	> 10 µM	9.02 µM	0.065 µM	0.342 µM	> 10 µM	9.48 µM	5.49 µM	> 10 µM	> 10 µM	> 10 µM	> 10 µM	0.036 µM	> 10 µM	9.73 µM	> 10 µM	8.86 µM	IC50 (KLE): > 10 µM; IC50 (Cal 27): > 10 µM; IC50 (SK-BR-3): > 10 µM; IC50 (SW-13): 8.45 µM; IC50 (J82): > 10 µM; IC50 (U266B1): > 10 µM; IC50 (MDA MB 453): 9.29 µM; IC50 (CHL-1): 9.1 µM; IC50 (OVCAR3): > 10 µM; IC50 (SCaBER): > 10 µM; IC50 (Daoy): > 10 µM; IC50 (Daudi): 0.132 µM; IC50 (NCI-H295R): > 10 µM; IC50 (HuP-T4): > 10 µM; IC50 (SaOS2): > 10 µM; IC50 (MDA MB 231): > 10 µM; IC50 (SK-MEL-3): > 10 µM; IC50 (HS 746T): 5.85 µM
